Laboratory results published in publication PMC9161374 (Science Translational Medicine, 2022).
Values joined by “and” are separate entries in the source; they are usually repeats but may differ in a detail not shown here. Identical values can stand only once.

What was measured:
[1] = test system: SARS-CoV-2 replicon system (pBAC-SARS-CoV-2-Replicon-Luc); assay: microbe, parasite or virus in culture; type: cell-based; details: Severe acute respiratory syndrome coronavirus 2, HEK-293T, 60 h
SARS-CoV-2 (B.1) = assay: Anti-SARS-CoV-2 activity in Vero E6 cells (viral yield by qRT-PCR); type: cell-based
[2] = test system: SARS-CoV-2 (B.1) in Huh7 cells; assay: Anti-SARS-CoV-2 activity in Huh7 cells (viral yield by qRT-PCR); type: cell-based; details: B.1, MOI 0.05, 48 h
Vero E6 cells = assay: CCK-8 cell viability assay; type: cell-based, African green monkey; details: individual replicate values, Fig.S4
Outline: (§1)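 Vero E6 cells, 20,000/well, exposed to compound at 0–200 μM (0, 0.01, 0.1, 1, 5, 10, 50, 75, 100, 200 μM) for 48 h; viability read by CCK-8 and expressed as percentage versus drug concentration, mean ± SD.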

[3] = CCK-8 cell viability assay; type: cell-based, African green monkey; details: African green monkey; Vero E6 cells, 48 h, CCK8
Outline: as §1

[4] = test system: SARS-CoV-2 (Delta, B.1.617.2); assay: microbe, parasite or virus in culture; type: cell-based; details: for % Inhibition: delta
[5] = test system: SARS-CoV-2 (Beta, B.1.351); assay: microbe, parasite or virus in culture; type: cell-based; details: for % Inhibition: beta

With CCC(CC)C(=O)OC[C@H]1O[C@@](C#N)(c2ccc3c(N)ncnn23)[C@H](O)[C@@H]1O [ATV011] the EC50 ([1]; read-out: EC50 (Confidence 95%), replicon) was 320 nM, the EC90 ([1]; read-out: EC90 (Confidence 95%), replicon) was 384 nM and the “% Inhibition” value (SARS-CoV-2 (B.1); 0.1 μM, replicates, sheet Fig.S3) was 0%. For the same molecule, the “% Inhibition” value (SARS-CoV-2 (B.1); 0.5 μM, replicates, sheet Fig.S3) was 0%, the “% Inhibition” value (SARS-CoV-2 (B.1); 1 μM, replicates, sheet Fig.S3) was 78.517% and the “% Inhibition” value (SARS-CoV-2 (B.1); 2 μM, replicates, sheet Fig.S3) was 79.6525%. For the same molecule, the “% Inhibition” value (SARS-CoV-2 (B.1); 5 μM, replicates, sheet Fig.S3) was 91.2053%, the “% Inhibition” value (SARS-CoV-2 (B.1); 10 μM, replicates, sheet Fig.S3) was 90.9393% and the “% Inhibition” value (SARS-CoV-2 (B.1); B.1, 0.01 uM, Vero E6, replicates) was 0%. The “% Inhibition” value (SARS-CoV-2 (B.1); B.1, 0.1 uM, Vero E6, replicates) was 0%, the “% Inhibition” value (SARS-CoV-2 (B.1); B.1, 0.25 uM, Vero E6, replicates) was 0% and the “% Inhibition” value (SARS-CoV-2 (B.1); B.1, 0.5 uM, Vero E6, replicates) was 0%. For the same molecule, the “% Inhibition” value (SARS-CoV-2 (B.1); B.1, 1 uM, Vero E6, replicates) was 0%, the “% Inhibition” value (SARS-CoV-2 (B.1); B.1, 2 uM, Vero E6, replicates, 2 µM) was 3.841% and 72.4491% and the “% Inhibition” value (SARS-CoV-2 (B.1); B.1, 5 uM, Vero E6, replicates, 5 µM) was 99.7181%. The “% Inhibition” value (SARS-CoV-2 (B.1); B.1, 10 uM, Vero E6, replicates, 10 µM) was 99.9819%, the “% Inhibition” value (SARS-CoV-2 (B.1); B.1, 50 uM, Vero E6, replicates, 50 µM) was 99.9874% and the inhibition at 0.1 µM (SARS-CoV-2 (B.1); Severe acute respiratory syndrome coronavirus 2, Vero C1008, 0.1 μM, replicates, sheet Fig.S3) was 0%. For the same molecule, the inhibition at 0.5 µM (SARS-CoV-2 (B.1); Severe acute respiratory syndrome coronavirus 2, Vero C1008, 0.5 μM, replicates, sheet Fig.S3) was 0%, the inhibition at 1 µM (SARS-CoV-2 (B.1); Severe acute respiratory syndrome coronavirus 2, Vero C1008, 1 μM, replicates, sheet Fig.S3) was 77.4% and the inhibition at 2 µM (SARS-CoV-2 (B.1); Severe acute respiratory syndrome coronavirus 2, Vero C1008, 2 μM, replicates, sheet Fig.S3) was 78%. For the same molecule, the inhibition at 5 µM (SARS-CoV-2 (B.1); Severe acute respiratory syndrome coronavirus 2, Vero C1008, 5 μM, replicates, sheet Fig.S3) was 93.5%, the inhibition at 10 µM (SARS-CoV-2 (B.1); Severe acute respiratory syndrome coronavirus 2, Vero C1008, 10 μM, replicates, sheet Fig.S3) was 93.2% and the inhibition at 0.01 µM (SARS-CoV-2 (B.1); Severe acute respiratory syndrome coronavirus 2, Vero C1008, B.1, 0.01 uM, Vero E6, replicates) was 0%. The inhibition at 0.1 µM (SARS-CoV-2 (B.1); Severe acute respiratory syndrome coronavirus 2, Vero C1008, B.1, 0.1 uM, Vero E6, replicates) was 0%, the inhibition at 0.25 µM (SARS-CoV-2 (B.1); Severe acute respiratory syndrome coronavirus 2, Vero C1008, B.1, 0.25 uM, Vero E6, replicates) was 0% and the inhibition at 0.5 µM (SARS-CoV-2 (B.1); Severe acute respiratory syndrome coronavirus 2, Vero C1008, B.1, 0.5 uM, Vero E6, replicates) was 0%. The inhibition at 1 µM (SARS-CoV-2 (B.1); Severe acute respiratory syndrome coronavirus 2, Vero C1008, B.1, 1 uM, Vero E6, replicates) was 0%, the inhibition at 5 µM (SARS-CoV-2 (B.1); Severe acute respiratory syndrome coronavirus 2, Vero C1008, B.1, 5 uM, Vero E6, replicates) was 99.5% and the inhibition at 10 µM (SARS-CoV-2 (B.1); Severe acute respiratory syndrome coronavirus 2, Vero C1008, B.1, 10 uM, Vero E6, replicates) was 99.9%. The inhibition at 50 µM (SARS-CoV-2 (B.1); Severe acute respiratory syndrome coronavirus 2, Vero C1008, B.1, 50 uM, Vero E6, replicates) was 99.9%, the EC90 (SARS-CoV-2 (B.1); Severe acute respiratory syndrome coronavirus 2, Vero C1008, read-out: EC90 (Confidence 95%)) was 2640 nM and the EC50 (SARS-CoV-2 (B.1); Severe acute respiratory syndrome coronavirus 2, Vero C1008, MOI 0.05, 48 h) was 2120 nM. The EC50 ([2]; Severe acute respiratory syndrome coronavirus 2, Huh-7, read-out: EC50 (Confidence 95%) in Huh7 cells) was 836 nM, the EC90 ([2]; Severe acute respiratory syndrome coronavirus 2, Huh-7, read-out: EC90 (Confidence 95%) in Huh7 cells) was 1010 nM and the “cell viability (% of control)” value (Vero E6 cells; 0.01 μM compound, 0.01 µM) was 118.751 % of control and 91.986 % of control and 93.878 % of control. For the same molecule, the “cell viability (% of control)” value (Vero E6 cells; 0.1 μM compound, 0.1 µM) was 121.196 % of control and 124.104 % of control and 115.797 % of control, the “cell viability (% of control)” value (Vero E6 cells; 1 μM compound, 1 µM) was 117.043 % of control and 115.382 % of control and 124.473 % of control and the “cell viability (% of control)” value (Vero E6 cells; 2 μM compound, 2 µM) was 120.919 % of control and 113.536 % of control and 114.367 % of control. The “cell viability (% of control)” value (Vero E6 cells; 5 μM compound, 5 µM) was 138.178 % of control and 143.9 % of control and 139.562 % of control, the “cell viability (% of control)” value (Vero E6 cells; 10 μM compound, 10 µM) was 141.085 % of control and 129.595 % of control and 122.535 % of control and the “cell viability (% of control)” value (Vero E6 cells; 50 μM compound, 50 µM) was 76.4283 % of control and 65.5331 % of control and 77.184 % of control. For the same molecule, the CC50 at 48 h [3] was > 50000 nM, the EC50 ([4]; Severe acute respiratory syndrome coronavirus 2, Vero C1008, 48 h, read-out: EC50 in Vero E6 cells, SARS-CoV-2 (Delta, B.1.617.2)) was 408 nM and the inhibition at 0.01 µM ([4]; Severe acute respiratory syndrome coronavirus 2, Vero C1008, delta, 0.01 uM, Vero E6, replicates) was 0%. It also gave an inhibition at 0.1 µM ([4]; Severe acute respiratory syndrome coronavirus 2, Vero C1008, delta, 0.1 uM, Vero E6, replicates) of 0%, an inhibition at 0.25 µM ([4]; Severe acute respiratory syndrome coronavirus 2, Vero C1008, delta, 0.25 uM, Vero E6, replicates) of 18.8% and an inhibition at 0.5 µM ([4]; Severe acute respiratory syndrome coronavirus 2, Vero C1008, delta, 0.5 uM, Vero E6, replicates) of 74.2%. For the same molecule, the inhibition at 1 µM ([4]; Severe acute respiratory syndrome coronavirus 2, Vero C1008, delta, 1 uM, Vero E6, replicates) was 83.5%, the inhibition at 2 µM ([4]; Severe acute respiratory syndrome coronavirus 2, Vero C1008, delta, 2 uM, Vero E6, replicates) was 94.4% and the inhibition at 5 µM ([4]; Severe acute respiratory syndrome coronavirus 2, Vero C1008, delta, 5 uM, Vero E6, replicates) was 94.6%. It also gave an inhibition at 10 µM ([4]; Severe acute respiratory syndrome coronavirus 2, Vero C1008, delta, 10 uM, Vero E6, replicates) of 99.9%, an inhibition at 50 µM ([4]; Severe acute respiratory syndrome coronavirus 2, Vero C1008, delta, 50 uM, Vero E6, replicates) of 100% and an EC90 ([4]; Severe acute respiratory syndrome coronavirus 2, Vero C1008, read-out: EC90 (Confidence 95%), Vero-E6, Delta B.1.617.2) of 842 nM. The “% Inhibition” value ([4]; 0.01 uM, Vero E6, replicates) was 0%, the “% Inhibition” value ([4]; 0.1 uM, Vero E6, replicates) was 0% and the “% Inhibition” value ([4]; 0.25 uM, Vero E6, replicates) was 20.35%. The “% Inhibition” value ([4]; 0.5 uM, Vero E6, replicates) was 62.851%, the “% Inhibition” value ([4]; 1 uM, Vero E6, replicates) was 82.2323% and the “% Inhibition” value ([4]; 2 uM, Vero E6, replicates) was 91.97%. The “% Inhibition” value ([4]; 5 uM, Vero E6, replicates) was 91.6601%, the “% Inhibition” value ([4]; 10 uM, Vero E6, replicates) was 99.4778% and the “% Inhibition” value ([4]; 50 uM, Vero E6, replicates) was 99.7579%. For the same molecule, the EC50 ([5]; Severe acute respiratory syndrome coronavirus 2, Vero C1008, 48 h, read-out: EC50 in Vero E6 cells, SARS-CoV-2 (Beta, B.1.351)) was 2300 nM, the inhibition at 0.01 µM ([5]; Severe acute respiratory syndrome coronavirus 2, Vero C1008, beta, 0.01 uM, Vero E6, replicates) was 0% and the inhibition at 0.1 µM ([5]; Severe acute respiratory syndrome coronavirus 2, Vero C1008, beta, 0.1 uM, Vero E6, replicates) was 0%. It also gave an inhibition at 0.25 µM ([5]; Severe acute respiratory syndrome coronavirus 2, Vero C1008, beta, 0.25 uM, Vero E6, replicates) of 0%, an inhibition at 0.5 µM ([5]; Severe acute respiratory syndrome coronavirus 2, Vero C1008, beta, 0.5 uM, Vero E6, replicates) of 0% and an inhibition at 1 µM ([5]; Severe acute respiratory syndrome coronavirus 2, Vero C1008, beta, 1 uM, Vero E6, replicates) of 0%. The inhibition at 2 µM ([5]; Severe acute respiratory syndrome coronavirus 2, Vero C1008, beta, 2 uM, Vero E6, replicates) was 29.7%, the inhibition at 5 µM ([5]; Severe acute respiratory syndrome coronavirus 2, Vero C1008, beta, 5 uM, Vero E6, replicates) was 99.6% and the inhibition at 10 µM ([5]; Severe acute respiratory syndrome coronavirus 2, Vero C1008, beta, 10 uM, Vero E6, replicates) was 99.9%. The inhibition at 50 µM ([5]; Severe acute respiratory syndrome coronavirus 2, Vero C1008, beta, 50 uM, Vero E6, replicates) was 99.9%, the EC90 ([5]; Severe acute respiratory syndrome coronavirus 2, Vero C1008, read-out: EC90 (Confidence 95%), Vero-E6, Beta B.1.351) was 2950 nM and the “% Inhibition” value ([5]; 0.01 uM, Vero E6, replicates) was 0%. For the same molecule, the “% Inhibition” value ([5]; 0.1 uM, Vero E6, replicates) was 0%, the “% Inhibition” value ([5]; 0.25 uM, Vero E6, replicates) was 0% and the “% Inhibition” value ([5]; 0.5 uM, Vero E6, replicates) was 0%. For the same molecule, the “% Inhibition” value ([5]; 1 uM, Vero E6, replicates) was 0%, the “% Inhibition” value ([5]; 2 uM, Vero E6, replicates) was 22.548% and the “% Inhibition” value ([5]; 5 uM, Vero E6, replicates) was 99.5042%. The “% Inhibition” value ([5]; 10 uM, Vero E6, replicates) was 99.9468% and the “% Inhibition” value ([5]; 50 uM, Vero E6, replicates) was 99.9524%.
